Reference: patent US9642858B2, “Use of resazurin, or analogs thereof, for antibacterial therapy” (priority 2012, dated 2017)
Converted amounts (≈) assume the structure as drawn. “Also recorded” adds a separate entry of the source.

How the values were obtained:
[1] = tested on: Escherichia coli; type: cell-based; conditions: 44 μM
[2] = tested on: N. sicca; type: cell-based, Neisseria sicca
[3] = tested on: N. gonorrhoeae; type: cell-based, Neisseria gonorrhoeae; conditions: 44 μM
[4] = tested on: F. tularensis LVS in primary human macrophages; type: cell-based, Francisella tularensis
[5] = tested on: F. tularensis LVS; assay: microbe, parasite or virus in culture; type: cell-based, Francisella tularensis
[6] = tested on: N. polysaccharea; type: cell-based, Neisseria polysaccharea
[7] = tested on: type A F. tularensis (Schu S4); type: cell-based, Francisella tularensis; conditions: 44 μM
[8] = tested on: primary human macrophages; assay: Viability of infected macrophages treated with resazurin (visible reduction of resazurin to resorufin)
[9] = tested on: F. tularensis LVS in HEK-293 cells; type: cell-based, Francisella tularensis
[10] = tested on: F. novicida; type: cell-based, Francisella novicida
[11] = tested on: Pseudomonas aeruginosa; type: cell-based; conditions: 44 μM

In the case of `O=c1ccc2[n+]([O-])c3ccc(O)cc3oc-2c1` [resazurin, 7-Hydroxy-3H-phenoxazin-3-one 10-oxide], the “bacterial viability / antimicrobial effect” value [1] is reported as “does not have an antimicrobial effect; also recorded: no effect on bacterial viability”, the bactericidal activity [2] is reported as “bactericidal” and the “bactericidal effect on chocolate II agar” value [3] is reported as “potent bactericidal effect”. The “intracellular growth / bacterial burden” value [4] was “inhibited intracellular growth; also recorded: reduces bacterial burden”, the viable intracellular bacteria [4] was “substantial decrease in viable bacteria” and the F. tularensis growth [5] was “growth is inhibited”. For the same compound, the “antibacterial activity (viable bacteria per ml)” value [5] was “have antibacterial activity”, the “antimicrobial activity, effect of medium” value [5] was “not affected by the choice of medium” and the “bacterial viability over time” value [5] was “significant decline in viable bacteria”. The “bactericidal activity to F. tularensis” value [5] was “bactericidal”, the “reduction in viable F. tularensis LVS bacteria compared to growth medium alone” value [5] was roughly 10 fold and the viable bacteria [5] was “decrease in viable bacteria”. The MIC ([5]; Francisella tularensis, read-out: minimal inhibitory concentration against F. tularensis) was 4.4 µM (≈ 1.01 µg/mL), the bactericidal activity [6] was “bactericidal” and the “bactericidal effect on chocolate II agar” value [7] was “potent bactericidal effect”. The “viability of macrophages (toxicity)” value [8] was “still viable”, the “intracellular growth / bacterial burden” value [9] was “inhibited intracellular growth; also recorded: reduces bacterial burden” and the “viable intracellular bacteria compared to the control” value [9] was “substantial decrease in viable bacteria”. For the same compound, the bactericidal activity [10] was “bactericidal” and the “bacterial viability / antimicrobial effect” value [11] was “does not have an antimicrobial effect; also recorded: no effect on bacterial viability”.

`O=c1ccc2nc3ccc(O)cc3oc-2c1` [resorufin] was tested, and the “antibacterial activity (viable bacteria per ml)” value [5] was “have antibacterial activity”, the “antimicrobial effect on F. tularensis LVS viability (CFU) relative to resazurin” value [5] was “equivalently potent antimicrobial effect” and the “bactericidal activity to F. tularensis” value [5] was “bactericidal”.
